The record followed here is patent US7829560B2, “1,4-disubstituted naphthalenes as inhibitors of P38 MAP kinase” (Arqule, Inc., priority 2004, dated 2010).

pIC50: −log10 of the molar value.

One data set deals with T1, p38α (Homo sapiens, UniProt Q16539).
T1 construct: p38 MAP Kinases are recombinant human full-length proteins with an amino-terminal GST fusion; GST (N); purchased Upstate Biotechnology Inc; host or cells: E. coli
Kind of data set: p38 MAP Kinase assay: inhibition of ATF2 phosphorylation, ELISA. It counts as biochemical. The following applies: ATF2 phosphorylation; read-out: [ENZ] P38 ALPHA, IC50, ELISA. In short, it runs like this: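 In vitro phosphorylation of ATF2 at Thr69 by recombinant human GST-p38 MAP kinase, read by anti-phospho-ATF2 ELISA at 450 nm. Enzyme and compound pre-incubated 15 min at RT, then 30 min reaction at 37 °C with 40 μM ATP and 1.25 μM ATF2; buffer with or without 1% HSA (Method II or I).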
Background: An ELISA detects its analyte on a solid surface through an enzyme-linked reagent.

The test system of data set [1] is TNFα release from THP-1 cells. The data set is described as follows: Inhibition of TNFα release from LPS-stimulated THP-1 cells, ELISA. The data set is classed as cell-based. Particulars: Homo sapiens, THP-1, THP-1 cells, read-out: [CELL] THP-1, IC50, TNF ALPHA, ELISA. In short, it runs like this:
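TNFα released into supernatant after 18 h of 10 μg/ml LPS stimulation was quantified by ELISA and IC50 taken as 50% reduction by non-linear regression. THP-1 cells (10^6/ml; medium with 10% FBS, serum-free or 1% HSA) saw compound for 30 min at 37 °C beforehand; final DMSO ≤0.5%.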

T1 sequence (Q16539 whole entry, the tested form may be a part): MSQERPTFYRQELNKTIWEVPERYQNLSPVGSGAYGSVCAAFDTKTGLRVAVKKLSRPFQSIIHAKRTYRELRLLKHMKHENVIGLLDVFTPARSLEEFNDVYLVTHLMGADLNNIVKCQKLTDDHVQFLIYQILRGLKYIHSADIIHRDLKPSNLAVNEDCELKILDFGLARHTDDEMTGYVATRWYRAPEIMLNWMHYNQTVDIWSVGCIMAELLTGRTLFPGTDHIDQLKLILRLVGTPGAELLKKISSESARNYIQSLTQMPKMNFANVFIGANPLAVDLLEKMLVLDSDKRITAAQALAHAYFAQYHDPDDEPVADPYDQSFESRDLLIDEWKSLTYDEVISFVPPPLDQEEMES

As to `O=C(Nc1ccc(Oc2ccnc(NC3CCC3)n2)c2ccccc12)c1cc(F)cc(N2CCOCC2)c1` [Compound B331, N-(4-{[2-(Cyclobutylamino)pyrimidin-4-yl]oxy}-1-naphthyl)-3-fluoro-5-morpholin-4-ylbenzamide], the melting point (as a rule, the temperature, or range, at which the solid turns liquid) lay in the range of 110 to 112 °C. The pIC50 (commonly the negative decadic logarithm of the IC50, by convention in mol/L) on p38α was 8.43. Besides, the pIC50 in data set [1] was 6.63.

Take `O=C(Nc1ccc(Oc2ccnc(N3CCC(O)CC3)n2)c2ccccc12)c1cc(F)cc(N2CCOCC2)c1` [Compound B332, 3-Fluoro-N-(4-{[2-(4-hydroxypiperidin-1-yl)pyrimidin-4-yl]oxy}-1-naphthyl)-5-morpholin-4-ylbenzamide]: the melting point lay in the range of 106 to 108 °C. Further, the pIC50 at p38α is 8.30. The pIC50 in data set [1] was 6.60.

For the molecule `O=C(Nc1ccc(Oc2ccnc(N3CCCC3)n2)c2ccccc12)c1cc(F)cc(N2CCOCC2)c1` [Compound B334, 3-Fluoro-5-morpholin-4-yl-N-{4-[(2-pyrrolidin-1-ylpyrimidin-4-yl)oxy]-1-naphthyl}benzamide], the melting point is 205 to 207 °C. In addition, the negative-log IC50 (pIC50) on p38α is 8.09. Also, in data set [1], the negative-log IC50 (pIC50) was 6.56.

`CC1CCN(c2nccc(Oc3ccc(NC(=O)c4cc(F)cc(N5CCOCC5)c4)c4ccccc34)n2)CC1` [Compound B335, 3-Fluoro-N-(4-{[2-(4-methylpiperidin-1-yl)pyrimidin-4-yl]oxy}-1-naphthyl)-5-morpholin-4-ylbenzamide] gave a melting point of 117 to 118 °C. Besides, the pIC50 on p38α is 7.65. Also, the pIC50 in data set [1] was under 6.00.

With `O=C(Nc1ccc(Oc2ccnc(NCC3CC3)n2)c2ccccc12)c1cc(F)cc(N2CCOCC2)c1` [Compound B336, N-[4-({2-[(Cyclopropylmethyl)amino]pyrimidin-4-yl}oxy)-1-naphthyl]-3-fluoro-5-morpholin-4-ylbenzamide], the melting point lay in the range of 116 to 117 °C. In addition, the pIC50 on p38α is 8.60. In addition, the pIC50 in data set [1] is 8.24.

On to `CC1CCC(Nc2nccc(Oc3ccc(NC(=O)c4cc(F)cc(N5CCOCC5)c4)c4ccccc34)n2)CC1` (stereo not drawn) [Compound B337, 3-Fluoro-N-[4-({2-[(4-methylcyclohexyl)amino]pyrimidin-4-yl}oxy)-1-naphthyl]-5-morpholin-4-ylbenzamide], for which the melting point is 116 to 117 °C. The pIC50 at p38α is 7.48. In data set [1], the pIC50 is 7.18.

Molecule `O=C(Nc1ccc(Oc2ccnc(NCCN3CCCC3)n2)c2ccccc12)c1cc(F)cc(N2CCOCC2)c1` [Compound B338, 3-Fluoro-5-morpholin-4-yl-N-[4-({2-[(2-pyrrolidin-1-ylethyl)amino]pyrimidin-4-yl}oxy)-1-naphthyl]benzamide] displayed a melting point of 95 to 97 °C. Also, the pIC50 on p38α is 7.77. For the same molecule, the pIC50 in data set [1] was 7.22.

Take `O=C(Nc1ccc(Oc2ccnc(N3CCC(O)C3)n2)c2ccccc12)c1cc(F)cc(N2CCOCC2)c1` (stereo not drawn) [Compound B339, 3-Fluoro-N-(4-{[2-(3-hydroxypyrrolidin-1-yl)pyrimidin-4-yl]oxy}-1-naphthyl)-5-morpholin-4-ylbenzamide]: the melting point fell in the range of 137 to 139 °C. Also, on p38α, the pIC50 was 7.41. Moreover, in data set [1], the pIC50 was 6.46.

In turn, `CC(C)(C)OC(=O)N1CCN(c2nccc(Oc3ccc(NC(=O)c4cc(F)cc(N5CCOCC5)c4)c4ccccc34)n2)CC1` [Compound B340, t-Butyl-4-[4-({4-[(3-fluoro-5-morpholin-4-ylbenzoyl)amino]-1-naphthyl}oxy)pyrimidin-2-yl]piperazine-1-carboxylate] had a melting point of 131 to 133 °C. On p38α, the negative logarithm of the IC50 (pIC50) was 7.25. The pIC50 in data set [1] was under 6.00.

For the molecule `CCOC(=O)N1CCC(Nc2nccc(Oc3ccc(NC(=O)c4cc(F)cc(N5CCOCC5)c4)c4ccccc34)n2)CC1` [Compound B341, Ethyl-4-{[4-({4-[(3-fluoro-5-morpholin-4-ylbenzoyl)amino]-1-naphthyl}oxy)pyrimidin-2-yl]amino}piperidine-1-carboxylate], the melting point was in the range of 122 to 124 °C. In addition, the pIC50 at p38α is 7.98. Moreover, the pIC50 in data set [1] was 6.23.

In the case of `CN(C)[C@@H]1CCN(c2nccc(Oc3ccc(NC(=O)c4cc(F)cc(N5CCOCC5)c4)c4ccccc34)n2)C1` [Compound B342, N-[4-({2-[(3R)-3-(dimethylamino)pyrrolidin-1-yl]pyrimidin-4-yl}oxy)-1-naphthyl]-3-fluoro-5-morpholin-4-ylbenzamide], the melting point is 115 to 117 °C. In addition, the pIC50 on p38α is 7.65. Further, in data set [1], the pIC50 was 7.21.

In turn, `O=C(Nc1ccc(Oc2ccnc(NCCN3CCCCC3)n2)c2ccccc12)c1cc(F)cc(N2CCOCC2)c1` [Compound B343, 3-Fluoro-5-morpholin-4-yl-N-[4-({2-[(2-piperidin-1-ylethyl)amino]pyrimidin-4-yl}oxy)-1-naphthyl]benzamide] had a melting point of 98 to 100 °C. For the same molecule, the pIC50 on p38α is 7.82. Also, in data set [1], the pIC50 is 6.87.

For the molecule `CN1CCCC1CCNc1nccc(Oc2ccc(NC(=O)c3cc(F)cc(N4CCOCC4)c3)c3ccccc23)n1` (stereo not drawn) [Compound B344, 3-Fluoro-N-{4-[(2-{[2-(1-methylpyrrolidin-2-yl)ethyl]amino}pyrimidin-4-yl)oxy]-1-naphthyl}-5-morpholin-4-ylbenzamide], the melting point lay within 100 to 101 °C. The pIC50 at p38α is 8.96. Further, the pIC50 in data set [1] was 8.21.

In the case of `CCN1CCN(c2nccc(Oc3ccc(NC(=O)c4cc(F)cc(N5CCOCC5)c4)c4ccccc34)n2)CC1` [Compound B345, N-(4-{[2-(4-Ethylpiperazin-1-yl)pyrimidin-4-yl]oxy}-1-naphthyl)-3-fluoro-5-morpholin-4-ylbenzamide], the melting point was in the range of 185 to 186 °C. Besides, the pIC50 on p38α was 7.88. In addition, the negative logarithm of the IC50 (pIC50) in data set [1] is 7.10.

With `O=C(Nc1ccc(Oc2ccnc(N3CCCC(O)C3)n2)c2ccccc12)c1cc(F)cc(N2CCOCC2)c1` (stereo not drawn) [Compound B346, 3-Fluoro-N-(4-{[2-(3-hydroxypiperidin-1-yl)pyrimidin-4-yl]oxy}-1-naphthyl)-5-morpholin-4-ylbenzamide], the melting point lay within 180 to 181 °C. The pIC50 on p38α is 8.28. For the same molecule, in data set [1], the negative logarithm of the IC50 (pIC50) is 6.37.

`O=C(Nc1ccc(Oc2ccnc(NC3CCS(=O)(=O)C3)n2)c2ccccc12)c1cc(F)cc(N2CCOCC2)c1` (stereo not drawn) [Compound B347, N-[4-({2-[(1,1-Dioxidotetrahydro-3-thienyl)amino]pyrimidin-4-yl}oxy)-1-naphthyl]-3-fluoro-5-morpholin-4-ylbenzamide] had a melting point of 150 to 151 °C. Also, the pIC50 on p38α is 7.86. Moreover, the pIC50 in data set [1] is 7.37.

Turning to `CC1CC(C)CN(c2nccc(Oc3ccc(NC(=O)c4cc(F)cc(N5CCOCC5)c4)c4ccccc34)n2)C1` (stereo not drawn) [Compound B348, N-(4-{[2-(3,5-Dimethylpiperidin-1-yl)pyrimidin-4-yl]oxy}-1-naphthyl)-3-fluoro-5-morpholin-4-ylbenzamide], the melting point fell in the range of 102 to 104 °C. Besides, at p38α, the pIC50 was 6.78. The pIC50 in data set [1] was under 6.00.

On to `CN(CC1OCCO1)c1nccc(Oc2ccc(NC(=O)c3cc(F)cc(N4CCOCC4)c3)c3ccccc23)n1` [Compound B349, N-[4-({2-[(1,3-Dioxolan-2-ylmethyl)(methyl)amino]pyrimidin-4-yl}oxy)-1-naphthyl]-3-fluoro-5-morpholin-4-ylbenzamide], for which the melting point was in the range of 111 to 112 °C. Moreover, the pIC50 on p38α is 7.73. In addition, the negative-log IC50 (pIC50) in data set [1] is 7.13.
